Results as given in patent US8148339B2, “Method of reducing cardiac levels of doxorubicin when given as orotate salt” (Savvipharm Inc, priority 2006, dated 2012).
Structures can show the parent of a compound that is named as a salt.

What was measured:
[1] = test system: CAKI-1 human renal tumor xenografts; settings: i.v., equivalent dosages
[2] = in vivo; cited from earlier work
[3] = cumulative dose; cited from earlier work
in vivo = settings: male, athymic NCr-nu/nu, mouse, iv, 8 mg/kg

concentration at 1 day after the last injection (day 26) (in vivo) [ng/g]	SMILES	difference in tumor growth, DOX orotate compared with DOX [1]	AUC [2] [mg·h/mL]	total dosage at which irreversible myocardial toxicity leading to congestive heart failure may be encountered [3] [mg/m^2]
–	COc1cccc2c1C(=O)c1c(O)c3c(c(O)c1C2=O)C[C@@](O)(C(=O)CO)C[C@@H]3O[C@H]1C[C@H](N)[C@H](O)[C@H](C)O1.O=C(O)c1cc(=O)[nH]c(=O)[nH]1 [DOX orotate, doxorubicin orotate]	no significant difference	–	–
7400	COc1cccc2c1C(=O)c1c(O)c3c(c(O)c1C2=O)C[C@@](O)(C(=O)CO)C[C@@H]3O[C@H]1C[C@H](N)[C@H](O)[C@H](C)O1 [DOX, (85, 105)-10-[(3-amino-2,3,6-trideoxy-(c-L-lyxo-hexopyranosyl)oxy]-8-glycolyl 1-7,8,9,10-tetrahydro-6,8,11-trihydroxy-1-methoxy-5,12-naphthacenedione hydrochloride]	–	9.9	~550
